Measured values taken from PubChem BioAssay (NCI).
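Five concentrations, 48 hours, 96-well plates. GI50: concentration for 50% inhibition of growth. Definition used: TGI = concentration required for complete inhibition of growth.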

Columns and labels:
Assay in all cases: inhibition of tumour cell growth, NCI panel, 48 h
OVCAR-5 ovarian = system: OVCAR-5 ovarian
TK-10 renal = system: TK-10 renal
HL-60(TB) leukemia = system: HL-60(TB) leukemia
SF-539 CNS = system: SF-539 CNS
CAKI-1 renal = system: CAKI-1 renal
SK-MEL-28 melanoma = system: SK-MEL-28 melanoma
HOP-62 NSCLC = system: HOP-62 NSCLC
SNB-75 CNS = system: SNB-75 CNS
DMS 114 small cell lung = system: DMS 114 small cell lung
SF-295 CNS = system: SF-295 CNS
SNB-19 CNS = system: SNB-19 CNS
MOLT-4 leukemia = system: MOLT-4 leukemia
HCC-2998 colon = system: HCC-2998 colon
KM20L2 colon = system: KM20L2 colon
SF-268 CNS = system: SF-268 CNS
CCRF-CEM leukemia = system: CCRF-CEM leukemia
DLD-1 colon = system: DLD-1 colon
SK-OV-3 ovarian = system: SK-OV-3 ovarian
EKVX NSCLC = system: EKVX NSCLC
KM12 colon = system: KM12 colon
U251 CNS = system: U251 CNS
RXF 393 renal = system: RXF 393 renal
SK-MEL-5 melanoma = system: SK-MEL-5 melanoma
OVCAR-4 ovarian = system: OVCAR-4 ovarian
M19-MEL melanoma = system: M19-MEL melanoma
HOP-18 NSCLC = system: HOP-18 NSCLC
HOP-92 NSCLC = system: HOP-92 NSCLC
IGROV1 ovarian = system: IGROV1 ovarian
A498 renal = system: A498 renal
NCI-H23 lung = system: NCI-H23 lung
ACHN renal = system: ACHN renal
HCT-15 colon = system: HCT-15 colon
MALME-3M melanoma = system: MALME-3M melanoma
UACC-62 melanoma = system: UACC-62 melanoma
NCI-H522 lung = system: NCI-H522 lung
LXFL 529 NSCLC = system: LXFL 529 NSCLC
SK-MEL-2 melanoma = system: SK-MEL-2 melanoma
SN12C renal = system: SN12C renal
SR leukemia = system: SR leukemia
UO-31 renal = system: UO-31 renal
NCI-H460 lung = system: NCI-H460 lung
UACC-257 melanoma = system: UACC-257 melanoma
HCT-116 colon = system: HCT-116 colon
K-562 leukemia = system: K-562 leukemia
M14 melanoma = system: M14 melanoma
XF 498 CNS = system: XF 498 CNS
SW-620 colon = system: SW-620 colon
786-0 renal = system: 786-0 renal
A549 NSCLC = system: A549 NSCLC
COLO 205 colon = system: COLO 205 colon
RPMI-8226 leukemia = system: RPMI-8226 leukemia
SNB-78 CNS = system: SNB-78 CNS
OVCAR-8 ovarian = system: OVCAR-8 ovarian
HT29 colon = system: HT29 colon
DMS 273 small cell lung = system: DMS 273 small cell lung
NCI-H226 lung = system: NCI-H226 lung
OVCAR-3 ovarian = system: OVCAR-3 ovarian
LOX IMVI melanoma = system: LOX IMVI melanoma

## CCC1=C(C(C)=O)[C@@H]2CCCCC[C@@H](C(=O)OC)C2C1=O (some centres undefined)
OVCAR-5 ovarian
  TGI: > 100 µM
TK-10 renal
  TGI: > 100 µM
HL-60(TB) leukemia
  TGI: > 100 µM
SF-539 CNS
  TGI: > 100 µM
CAKI-1 renal
  TGI: > 100 µM
SK-MEL-28 melanoma
  TGI: > 100 µM
HOP-62 NSCLC
  TGI: > 100 µM
SNB-75 CNS
  TGI: > 100 µM
DMS 114 small cell lung
  TGI: > 100 µM
SF-295 CNS
  TGI: > 100 µM
SNB-19 CNS
  TGI: > 100 µM
MOLT-4 leukemia
  TGI: > 100 µM
HCC-2998 colon
  TGI: > 100 µM
KM20L2 colon
  TGI: > 100 µM
SF-268 CNS
  TGI: > 100 µM
CCRF-CEM leukemia
  TGI: > 100 µM
DLD-1 colon
  TGI: > 100 µM
SK-OV-3 ovarian
  TGI: > 100 µM
EKVX NSCLC
  TGI: > 100 µM
KM12 colon
  TGI: > 100 µM
U251 CNS
  TGI: > 100 µM
RXF 393 renal
  TGI: > 100 µM
SK-MEL-5 melanoma
  TGI: > 100 µM
OVCAR-4 ovarian
  TGI: > 100 µM
M19-MEL melanoma
  TGI: > 100 µM
HOP-18 NSCLC
  TGI: > 100 µM
HOP-92 NSCLC
  TGI: > 100 µM
IGROV1 ovarian
  TGI: > 100 µM
A498 renal
  TGI: > 100 µM
NCI-H23 lung
  TGI: > 100 µM
ACHN renal
  TGI: > 100 µM
HCT-15 colon
  TGI: > 100 µM
MALME-3M melanoma
  TGI: > 100 µM
UACC-62 melanoma
  TGI: > 100 µM
NCI-H522 lung
  TGI: > 100 µM
LXFL 529 NSCLC
  TGI: > 100 µM
SK-MEL-2 melanoma
  TGI: > 100 µM
SN12C renal
  TGI: > 100 µM
SR leukemia
  TGI: > 100 µM
UO-31 renal
  TGI: > 100 µM
NCI-H460 lung
  TGI: > 100 µM
UACC-257 melanoma
  TGI: > 100 µM
HCT-116 colon
  TGI: > 100 µM
K-562 leukemia
  TGI: > 100 µM
M14 melanoma
  TGI: > 100 µM
XF 498 CNS
  TGI: > 100 µM
SW-620 colon
  TGI: > 100 µM
786-0 renal
  TGI: > 100 µM
A549 NSCLC
  TGI: > 100 µM
COLO 205 colon
  TGI: > 100 µM
RPMI-8226 leukemia
  TGI: > 100 µM
SNB-78 CNS
  TGI: > 100 µM
OVCAR-8 ovarian
  TGI: > 100 µM
HT29 colon
  TGI: > 100 µM
DMS 273 small cell lung
  TGI: > 100 µM

## CCOC(=O)/C=C1\CCCC12OCCO2
TK-10 renal
  TGI: > 100 µM
HL-60(TB) leukemia
  TGI: > 100 µM
SF-539 CNS
  TGI: > 100 µM
CAKI-1 renal
  TGI: > 100 µM
SK-MEL-28 melanoma
  TGI: > 100 µM
HOP-62 NSCLC
  TGI: > 100 µM
SNB-75 CNS
  TGI: > 100 µM
DMS 114 small cell lung
  TGI: > 100 µM
NCI-H226 lung
  TGI: > 100 µM
SNB-19 CNS
  TGI: > 100 µM
MOLT-4 leukemia
  TGI: > 100 µM
HCC-2998 colon
  TGI: > 100 µM
KM20L2 colon
  TGI: > 100 µM
SF-268 CNS
  TGI: > 100 µM
CCRF-CEM leukemia
  TGI: > 100 µM
DLD-1 colon
  TGI: > 100 µM
SK-OV-3 ovarian
  TGI: > 100 µM
KM12 colon
  TGI: > 100 µM
U251 CNS
  TGI: > 100 µM
RXF 393 renal
  TGI: > 100 µM
SK-MEL-5 melanoma
  TGI: > 100 µM
OVCAR-4 ovarian
  TGI: > 100 µM
M19-MEL melanoma
  TGI: > 100 µM
HOP-18 NSCLC
  TGI: > 100 µM
IGROV1 ovarian
  TGI: > 100 µM
A498 renal
  TGI: > 100 µM
ACHN renal
  TGI: > 100 µM
HCT-15 colon
  TGI: > 100 µM
MALME-3M melanoma
  TGI: > 100 µM
OVCAR-3 ovarian
  TGI: > 100 µM
UACC-62 melanoma
  TGI: > 100 µM
NCI-H522 lung
  TGI: 7.38 µM
LXFL 529 NSCLC
  TGI: > 100 µM
SK-MEL-2 melanoma
  TGI: > 100 µM
SN12C renal
  TGI: > 100 µM
SR leukemia
  TGI: > 100 µM
UO-31 renal
  TGI: > 100 µM
NCI-H460 lung
  TGI: > 100 µM
UACC-257 melanoma
  TGI: > 100 µM
HCT-116 colon
  TGI: > 100 µM
K-562 leukemia
  TGI: > 100 µM
M14 melanoma
  TGI: > 100 µM
SW-620 colon
  TGI: > 100 µM
786-0 renal
  TGI: > 100 µM
A549 NSCLC
  TGI: > 100 µM
COLO 205 colon
  TGI: > 100 µM
RPMI-8226 leukemia
  TGI: > 100 µM
SNB-78 CNS
  TGI: > 100 µM
OVCAR-8 ovarian
  TGI: > 100 µM
DMS 273 small cell lung
  TGI: > 100 µM

## CC[O-].CC[O-].O=S(=O)([O-])c1ccc([O-])c2ncccc12.O=S(=O)([O-])c1ccc([O-])c2ncccc12.[Ti+4]
OVCAR-5 ovarian
  GI50: 33.5 µM
  TGI: > 100 µM
TK-10 renal
  GI50: > 100 µM
  TGI: > 100 µM
HL-60(TB) leukemia
  GI50: 40.9 µM
  TGI: > 100 µM
SF-539 CNS
  GI50: 67.9 µM
  TGI: > 100 µM
CAKI-1 renal
  GI50: > 100 µM
  TGI: > 100 µM
SK-MEL-28 melanoma
  GI50: > 100 µM
  TGI: > 100 µM
HOP-62 NSCLC
  GI50: 44 µM
  TGI: > 100 µM
SNB-75 CNS
  GI50: 72.8 µM
  TGI: > 100 µM
DMS 114 small cell lung
  GI50: 74.7 µM
  TGI: > 100 µM
NCI-H226 lung
  GI50: > 100 µM
  TGI: > 100 µM
SF-295 CNS
  GI50: > 100 µM
  TGI: > 100 µM
SNB-19 CNS
  GI50: 58.3 µM
  TGI: > 100 µM
MOLT-4 leukemia
  GI50: 37.2 µM
  TGI: > 100 µM
HCC-2998 colon
  GI50: 68.2 µM
  TGI: > 100 µM
KM20L2 colon
  GI50: 39.7 µM
  TGI: > 100 µM
SF-268 CNS
  GI50: 42.1 µM
  TGI: > 100 µM
CCRF-CEM leukemia
  GI50: 53.3 µM
  TGI: > 100 µM
DLD-1 colon
  GI50: 91.1 µM
  TGI: > 100 µM
SK-OV-3 ovarian
  GI50: > 100 µM
  TGI: > 100 µM
EKVX NSCLC
  GI50: > 100 µM
  TGI: > 100 µM
KM12 colon
  GI50: 96.5 µM
  TGI: > 100 µM
SK-MEL-5 melanoma
  GI50: > 100 µM
  TGI: > 100 µM
OVCAR-4 ovarian
  GI50: 52.9 µM
  TGI: > 100 µM
M19-MEL melanoma
  GI50: > 100 µM
  TGI: > 100 µM
HOP-18 NSCLC
  GI50: > 100 µM
  TGI: > 100 µM
IGROV1 ovarian
  GI50: > 100 µM
  TGI: > 100 µM
A498 renal
  GI50: > 100 µM
  TGI: > 100 µM
NCI-H23 lung
  GI50: > 100 µM
  TGI: > 100 µM
ACHN renal
  GI50: 59.1 µM
  TGI: > 100 µM
HCT-15 colon
  GI50: > 100 µM
  TGI: > 100 µM
MALME-3M melanoma
  GI50: > 100 µM
  TGI: > 100 µM
OVCAR-3 ovarian
  GI50: 47.6 µM
  TGI: > 100 µM
UACC-62 melanoma
  GI50: 66.2 µM
  TGI: > 100 µM
NCI-H522 lung
  GI50: 32.8 µM
  TGI: > 100 µM
LXFL 529 NSCLC
  GI50: 39.6 µM
  TGI: > 100 µM
SK-MEL-2 melanoma
  GI50: > 100 µM
  TGI: > 100 µM
SN12C renal
  GI50: > 100 µM
  TGI: > 100 µM
UO-31 renal
  GI50: 74.4 µM
  TGI: > 100 µM
UACC-257 melanoma
  GI50: 43.7 µM
  TGI: > 100 µM
HCT-116 colon
  GI50: 41.1 µM
  TGI: > 100 µM
K-562 leukemia
  GI50: > 100 µM
  TGI: > 100 µM
M14 melanoma
  GI50: 63.8 µM
  TGI: > 100 µM
SW-620 colon
  GI50: > 100 µM
  TGI: > 100 µM
786-0 renal
  GI50: 49 µM
  TGI: > 100 µM
LOX IMVI melanoma
  GI50: 28.3 µM
  TGI: > 100 µM
A549 NSCLC
  GI50: 39.1 µM
  TGI: > 100 µM
COLO 205 colon
  GI50: 83.2 µM
  TGI: > 100 µM
RPMI-8226 leukemia
  GI50: > 100 µM
  TGI: > 100 µM
SNB-78 CNS
  GI50: > 100 µM
  TGI: > 100 µM
OVCAR-8 ovarian
  GI50: 74.5 µM
  TGI: > 100 µM
HT29 colon
  GI50: 52.8 µM
  TGI: > 100 µM
DMS 273 small cell lung
  GI50: 78.1 µM
  TGI: > 100 µM
